Source: patent US4731109A, “Herbicidal 2-haloacetanilides” (Monsanto Company, priority 1982, dated 1988)
Like-named read-outs stand apart in the source and are kept apart here.

How the values were obtained:
Assay type in all cases: in vivo
peanuts [1] = assay: Greenhouse pre-emergence GR15/GR85 selectivity test; conditions: Table XVI
From the text: (§1) A good grade of top soil is placed in aluminum pans and compacted to a depth of three-eighths to one-half inch from the top of the pan. On the top of the soil is placed a number of seeds or vegetative propagules of various plant species. The soil required to level fill the pans after seeding or adding vegetative propagules is weighed into a pan. The soil and a known amount of the active ingredient applied in a solvent or as a wettable powder suspension are thoroughly mixed, and used to cover the prepared pans. After treatment, the pans are given an initial overhead irrigation of eater, equivalent to one-fourth inch (0.64 cm) rainfall, then watered by subirrigation as need to give adequate moisture for germination and growth. As an alternative procedure, the overhead irrigation may be omitted. Observations are made about 2-3 weeks after seeding and treatment.
(§2) In the discussion and tables of data below, reference is made to herbicide application rates symbolized as "GR15 " and "GR85 "; these rates are given in kilograms per hectare (kg/ha) which are convertible into pounds per acre (lbs/A) by dividing the kg/ha rate by 1.12.
(§3) A further guide to the effectiveness of a chemical as a selective herbicide is the "selectivity factor" ("SF") for a herbicide in given crops and weeds. The selectivity factor is a measure of the relative degree of crop safety and weed injury and is expressed in terms of the GR15 /GR85 ratio, i.e., the GR15 rate for the crop divided by the GR85 rate for the weed, both rates in kg/ha (lb/A). In the tables below, selectivity factors are shown in parenthesis following the GR85 rate for each weed; the symbol "NS" indicates "non-selective". Marginal or undetermined selectivity is indicated by a dash (--).
(§4) Additionally, pre-emergence herbicidal data from other tests have established that compounds according to this invention also selectively suppress quackgrass, yellow nutsedge and/or other weeds in one or more of the crops cotton, peanuts, bush beans and/or rape. For example, in Table VI are presented data showing the herbicidal selectivity of the compounds of Examples 1 and 2 against quackgrass in rape and snap beans. Unless otherwise noted; greenhouse tests in Table VI and in other tables below involved herbicide treatments by soil incorporation and an initial overhead irrigation followed by subirrigation as described above.
(§5) Additional greenhouse tests were made to test certain compounds of this invention against a plurality of problem weeds in peanuts and lima beans; except for fall panicum, the test weeds are particularly resistant weeds; the test data is set forth in Table XVI.
(§6) In Table XVI, the selectivity factors for the test compounds for each weed in lima beans is shown as the first or upper value in parenthesis and the selectivity factors for each weed in peanuts is shown as the second or lower value in parenthesis for each compound. For example, the selectivity factor for the compound of Example 3 for seedling johnsongrass in lima beans is 2.1 and in peanuts, >4.9; the selectivity factor for Texas panicum in lima beans is 1.1 and in peanuts, >2.6, etc.

lima beans = assay: as above; conditions: Table XVI
From the text: as §1, §2, §3, §4, §5, §6

Field Corn = assay: Field pre-emergence selectivity test; conditions: Zea mays, 1008 h, 6 weeks, read-out: Percent Inhibition; for inhibition at 560 g/ha: 0.56 Kg/Ha; for inhibition at 1120 g/ha: 1.12 Kg/Ha; for inhibition at 2240 g/ha: 2.24 Kg/Ha; for inhibition at 4480 g/ha: 4.48 Kg/Ha
Method: (§7) The compound of Examples 1 and 2 was also tested in the field to determine its pre-emergence selectivity against foxtail (spp), barnyardgrass, wild proso millet, smartweed, lambsquarters and pigweed in a plurality of crops; the data (representing three replicate runs) are shown in Table VII for both surface application (S.A.) and soil incorporation (PPI, i.e., preplant incorporation) of the herbicide. The seeds were planted in a fine seedbed of silt loam of intermediate moisture. The seeds were planted at a depth of two inches (5.08 cm). First rainfall (0.2"; 0.51 cm) occurred the day following treatment, the second rain (0.25"; […]) two days after treatment; cumulative rainfall 22 days after treatment was 1.8" (4.57 cm). Observations were made 6 weeks after treatment.

Smartweed = assay: Field pre-emergence selectivity test; conditions: 1008 h, 6 weeks, read-out: Percent Inhibition; for inhibition at 560 g/ha: 0.56 Kg/Ha; for inhibition at 2240 g/ha: 2.24 Kg/Ha; for inhibition at 4480 g/ha: 4.48 Kg/Ha
Method: as §7

wild proso millet = assay: Field pre-emergence selectivity test; conditions: 1008 h, 6 weeks, read-out: Percent Inhibition; for inhibition at 560 g/ha: 0.56 Kg/Ha; for inhibition at 1120 g/ha: 1.12 Kg/Ha; for inhibition at 2240 g/ha: 2.24 Kg/Ha; for inhibition at 4480 g/ha: 4.48 Kg/Ha
Method: as §7

Sorghum = assay: Field pre-emergence selectivity test; conditions: 1008 h, 6 weeks, read-out: Percent Inhibition; for inhibition at 560 g/ha: 0.56 Kg/Ha; for inhibition at 1120 g/ha: 1.12 Kg/Ha; for inhibition at 2240 g/ha: 2.24 Kg/Ha; for inhibition at 4480 g/ha: 4.48 Kg/Ha
Method: as §7

Sweet Corn = assay: Field pre-emergence selectivity test; conditions: Zea mays, 1008 h, 6 weeks, read-out: Percent Inhibition; for inhibition at 560 g/ha: 0.56 Kg/Ha; for inhibition at 1120 g/ha: 1.12 Kg/Ha; for inhibition at 2240 g/ha: 2.24 Kg/Ha
From the text: (§8) The seeds were planted in a fine seedbed of silt loam of intermediate moisture. The seeds were planted at a depth of two inches (5.08 cm). First rainfall (0.2"; 0.51 cm) occurred the day following treatment, the second rain (0.25"; […]) two days after treatment; cumulative rainfall 22 days after treatment was 1.8" (4.57 cm). Observations were made 6 weeks after treatment.

peanuts [2] = assay: Field pre-emergence selectivity test; conditions: 1008 h, 6 weeks, read-out: Percent Inhibition; for inhibition at 560 g/ha: 0.56 Kg/Ha; for inhibition at 1120 g/ha: 1.12 Kg/Ha; for inhibition at 2240 g/ha: 2.24 Kg/Ha; for inhibition at 4480 g/ha: 4.48 Kg/Ha
From the text: as §8

Lambsquarters = assay: Field pre-emergence selectivity test; conditions: Chenopodium album, 1008 h, S.A., 6 weeks, read-out: Percent Inhibition
From the text: as §8

cotton = assay: Field pre-emergence selectivity test; conditions: Gossypium hirsutum, 1008 h, 6 weeks, read-out: Percent Inhibition; for inhibition at 560 g/ha: 0.56 Kg/Ha; for inhibition at 1120 g/ha: 1.12 Kg/Ha; for inhibition at 2240 g/ha: 2.24 Kg/Ha; for inhibition at 4480 g/ha: 4.48 Kg/Ha
From the text: as §8

CCCOCN(C(=O)CCl)c1c(C)cccc1C(F)(F)F [Example 3, N--(n-propoxymethyl)-2'-trifluoromethyl-6'-methyl-2-chloroacetanilide]
GR15 Rate (peanuts [1]): > 1.12 Kg/Ha
GR15 Rate (lima beans): 0.49 Kg/Ha

Cc1cccc(C(F)(F)F)c1N(COCC(C)C)C(=O)CCl [Example 5, N--(isobutoxymethyl)-2'-trifluoromethyl-6'-methyl-2-chloroacetanilide]
GR15 Rate (peanuts [1]): 0.56 Kg/Ha
GR15 Rate (lima beans): > 1.12 Kg/Ha

CCOCN(C(=O)CCl)c1c(CC)cccc1C(F)(F)F [Example 9, N--(ethoxymethyl)-2'-trifluoromethyl-6'-ethyl-2-chloroacetanilide]
GR15 Rate (peanuts [1]): 0.90 Kg/Ha
GR15 Rate (lima beans): 0.75 Kg/Ha

CCCOCN(C(=O)CCl)c1c(CC)cccc1C(F)(F)F [Example 10, N--(n-propoxymethyl)-2'-trifluoromethyl-6'-ethyl-2-chloroacetanilide]
GR15 Rate (peanuts [1]): 0.98 Kg/Ha
GR15 Rate (lima beans): > 1.12 Kg/Ha

CCOCN(C(=O)CCl)c1c(C)cccc1C(F)(F)F [Example 1, N-(ethoxymethyl)-2'-trifluoromethyl-6'-methyl-2-chloroacetanilide]
inhibition at 560 g/ha (Field Corn; P.P.I.): 0%
inhibition at 1120 g/ha (Field Corn; P.P.I.): 0%
inhibition at 2240 g/ha (Field Corn; P.P.I.): 5%
inhibition at 4480 g/ha (Field Corn; P.P.I.): 32%
inhibition at 560 g/ha (Field Corn; S.A.): 0%
inhibition at 1120 g/ha (Field Corn; S.A.): 0%
inhibition at 2240 g/ha (Field Corn; S.A.): 0%
inhibition at 4480 g/ha (Field Corn; S.A.): 15%
inhibition at 560 g/ha (Smartweed; P.P.I.): 20%
inhibition at 2240 g/ha (Smartweed; P.P.I.): 75%
inhibition at 4480 g/ha (Smartweed; P.P.I.): 85%
inhibition at 560 g/ha (Smartweed; S.A.): 0%
inhibition at 1120 g/ha (Smartweed; S.A., 1.12 Kg/Ha): 0%
inhibition at 2240 g/ha (Smartweed; S.A.): 50%
inhibition at 4480 g/ha (Smartweed; S.A.): 90%
inhibition at 560 g/ha (wild proso millet; P.P.I.): 23%
inhibition at 1120 g/ha (wild proso millet; P.P.I.): 58%
inhibition at 2240 g/ha (wild proso millet; P.P.I.): 80%
inhibition at 4480 g/ha (wild proso millet; P.P.I.): 85%
inhibition at 560 g/ha (wild proso millet; S.A.): 63%
inhibition at 1120 g/ha (wild proso millet; S.A.): 83%
inhibition at 2240 g/ha (wild proso millet; S.A.): 95%
inhibition at 4480 g/ha (wild proso millet; S.A.): 97%
inhibition at 560 g/ha (Sorghum; P.P.I.): 32%
inhibition at 1120 g/ha (Sorghum; P.P.I.): 53%
inhibition at 2240 g/ha (Sorghum; P.P.I.): 92%
inhibition at 4480 g/ha (Sorghum; P.P.I.): 98%
inhibition at 560 g/ha (Sorghum; S.A.): 0%
inhibition at 1120 g/ha (Sorghum; S.A.): 3%
inhibition at 2240 g/ha (Sorghum; S.A.): 17%
inhibition at 4480 g/ha (Sorghum; S.A.): 77%
inhibition at 560 g/ha (Sweet Corn; P.P.I.): 0%
inhibition at 1120 g/ha (Sweet Corn; P.P.I.): 3%
inhibition at 2240 g/ha (Sweet Corn; P.P.I.): 27%
inhibition at 4480 g/ha (Sweet Corn; P.P.I., 4.48 Kg/Ha): 40%
inhibition at 560 g/ha (Sweet Corn; S.A.): 0%
inhibition at 1120 g/ha (Sweet Corn; S.A.): 0%
inhibition at 2240 g/ha (Sweet Corn; S.A.): 7%
inhibition at 560 g/ha (peanuts [2]; P.P.I.): 17%
inhibition at 1120 g/ha (peanuts [2]; P.P.I.): 13%
inhibition at 2240 g/ha (peanuts [2]; P.P.I.): 15%
inhibition at 4480 g/ha (peanuts [2]; P.P.I.): 28%
inhibition at 560 g/ha (peanuts [2]; S.A.): 0%
inhibition at 1120 g/ha (peanuts [2]; S.A.): 0%
inhibition at 2240 g/ha (peanuts [2]; S.A.): 8%
inhibition at 4480 g/ha (peanuts [2]; S.A.): 22%
inhibition at 560 g/ha (Lambsquarters; 0.56 Kg/Ha): 0%
inhibition at 1120 g/ha (Lambsquarters; 1.12 Kg/Ha): 13%
inhibition at 2240 g/ha (Lambsquarters; 2.24 Kg/Ha): 40%
inhibition at 4480 g/ha (Lambsquarters; 4.48 Kg/Ha): 67%
inhibition at 560 g/ha (cotton; P.P.I.): 13%
inhibition at 1120 g/ha (cotton; P.P.I.): 32%
inhibition at 2240 g/ha (cotton; P.P.I.): 37%
inhibition at 4480 g/ha (cotton; P.P.I.): 82%
inhibition at 560 g/ha (cotton; S.A.): 0%
inhibition at 1120 g/ha (cotton; S.A.): 13%
inhibition at 2240 g/ha (cotton; S.A.): 20%
inhibition at 4480 g/ha (cotton; S.A.): 25%

Cc1cccc(C(F)(F)F)c1N(COC(C)C)C(=O)CCl [Example 4, N--(isopropoxymethyl)-2'-trifluoromethyl-6'-methyl-2-chloroacetanilide]
GR15 Rate (peanuts [1]): 0.98 Kg/Ha
GR15 Rate (lima beans): > 1.12 Kg/Ha
